Measured values taken from ChEMBL document CHEMBL3991601, “The target landscape of clinical kinase drugs” (Science, 2017).
Activity calls are given as the source filed them. On the calls: in the data inactive means no Kd found up to 30 µM.

Columns and labels:
[1] = target: Dual specificity protein kinase CLK4 (Homo sapiens, UniProt Q9HAZ1)
[2] = target: T1, Tyrosine-protein kinase Mer (Homo sapiens, UniProt Q12866)
T1 sequence (Q12866 whole entry): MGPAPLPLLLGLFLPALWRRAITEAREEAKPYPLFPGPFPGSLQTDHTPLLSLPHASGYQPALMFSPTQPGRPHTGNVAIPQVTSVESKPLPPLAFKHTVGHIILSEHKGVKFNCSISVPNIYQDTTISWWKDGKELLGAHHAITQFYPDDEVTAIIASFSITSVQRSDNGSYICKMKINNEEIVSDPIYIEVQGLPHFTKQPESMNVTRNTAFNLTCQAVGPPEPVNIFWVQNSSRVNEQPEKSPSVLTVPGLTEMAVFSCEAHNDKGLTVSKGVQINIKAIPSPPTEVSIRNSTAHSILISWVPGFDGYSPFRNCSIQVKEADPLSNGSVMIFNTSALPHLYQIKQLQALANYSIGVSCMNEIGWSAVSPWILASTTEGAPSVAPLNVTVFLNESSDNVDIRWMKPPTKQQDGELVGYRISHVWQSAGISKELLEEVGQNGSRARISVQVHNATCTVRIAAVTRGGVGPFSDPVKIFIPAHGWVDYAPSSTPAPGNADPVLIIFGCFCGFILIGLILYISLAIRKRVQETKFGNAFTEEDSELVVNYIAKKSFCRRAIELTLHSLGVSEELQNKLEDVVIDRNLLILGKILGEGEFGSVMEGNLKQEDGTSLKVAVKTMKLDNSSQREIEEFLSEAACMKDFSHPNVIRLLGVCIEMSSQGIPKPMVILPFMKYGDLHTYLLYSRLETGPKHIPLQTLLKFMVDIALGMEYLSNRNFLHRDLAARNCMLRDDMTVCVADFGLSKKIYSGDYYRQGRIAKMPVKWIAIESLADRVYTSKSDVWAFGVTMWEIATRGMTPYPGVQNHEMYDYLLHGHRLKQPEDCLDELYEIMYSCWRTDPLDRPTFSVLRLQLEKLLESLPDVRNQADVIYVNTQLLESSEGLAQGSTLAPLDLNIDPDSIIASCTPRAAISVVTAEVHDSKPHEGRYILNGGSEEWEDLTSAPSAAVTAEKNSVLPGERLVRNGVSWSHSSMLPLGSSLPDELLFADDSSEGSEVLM

[3] = target: Dual specificity protein kinase CLK3 (Homo sapiens, UniProt P49761); assay type: subcellular, K-562, COLO 205, SK-N-BE(2) and MV-4-11, Cell lysate; conditions: read-out: Kd apparent
[4] = target: Uncharacterized aarF domain-containing protein kinase 5 (Homo sapiens, UniProt Q3MIX3)
[5] = target: T2, Dual specificity protein kinase TTK (Homo sapiens, UniProt P33981)
T2 sequence (P33981 whole entry): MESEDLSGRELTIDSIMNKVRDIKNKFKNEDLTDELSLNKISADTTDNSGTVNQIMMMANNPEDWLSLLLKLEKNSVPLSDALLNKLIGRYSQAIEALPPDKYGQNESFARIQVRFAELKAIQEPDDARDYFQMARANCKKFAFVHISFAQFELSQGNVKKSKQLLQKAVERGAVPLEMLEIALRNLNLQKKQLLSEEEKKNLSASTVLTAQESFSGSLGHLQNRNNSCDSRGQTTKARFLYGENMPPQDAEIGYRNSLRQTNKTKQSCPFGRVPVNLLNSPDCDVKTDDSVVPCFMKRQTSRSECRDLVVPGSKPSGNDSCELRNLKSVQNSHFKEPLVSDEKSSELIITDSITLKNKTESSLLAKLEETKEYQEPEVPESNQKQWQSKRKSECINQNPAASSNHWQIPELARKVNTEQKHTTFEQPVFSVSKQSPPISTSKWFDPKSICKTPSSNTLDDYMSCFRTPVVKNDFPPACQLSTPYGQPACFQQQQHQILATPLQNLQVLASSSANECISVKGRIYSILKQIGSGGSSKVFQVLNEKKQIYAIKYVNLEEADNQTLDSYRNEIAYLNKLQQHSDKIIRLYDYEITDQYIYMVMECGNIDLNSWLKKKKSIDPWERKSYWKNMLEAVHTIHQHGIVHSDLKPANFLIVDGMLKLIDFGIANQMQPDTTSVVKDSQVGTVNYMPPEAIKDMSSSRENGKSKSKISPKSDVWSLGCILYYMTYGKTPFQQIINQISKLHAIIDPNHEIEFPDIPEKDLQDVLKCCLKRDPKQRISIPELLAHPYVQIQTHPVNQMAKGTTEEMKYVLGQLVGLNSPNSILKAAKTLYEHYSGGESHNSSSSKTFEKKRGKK

Misshapen-like kinase 1 = Misshapen-like kinase 1 (Homo sapiens, UniProt Q8N4C8)
[6] = target: Serine/threonine-protein kinase 38-like (Homo sapiens, UniProt Q9Y2H1)
[7] = target: T3, Long-chain-fatty-acid--CoA ligase 5 (Homo sapiens, UniProt Q9ULC5)
T3 sequence (Q9ULC5 whole entry): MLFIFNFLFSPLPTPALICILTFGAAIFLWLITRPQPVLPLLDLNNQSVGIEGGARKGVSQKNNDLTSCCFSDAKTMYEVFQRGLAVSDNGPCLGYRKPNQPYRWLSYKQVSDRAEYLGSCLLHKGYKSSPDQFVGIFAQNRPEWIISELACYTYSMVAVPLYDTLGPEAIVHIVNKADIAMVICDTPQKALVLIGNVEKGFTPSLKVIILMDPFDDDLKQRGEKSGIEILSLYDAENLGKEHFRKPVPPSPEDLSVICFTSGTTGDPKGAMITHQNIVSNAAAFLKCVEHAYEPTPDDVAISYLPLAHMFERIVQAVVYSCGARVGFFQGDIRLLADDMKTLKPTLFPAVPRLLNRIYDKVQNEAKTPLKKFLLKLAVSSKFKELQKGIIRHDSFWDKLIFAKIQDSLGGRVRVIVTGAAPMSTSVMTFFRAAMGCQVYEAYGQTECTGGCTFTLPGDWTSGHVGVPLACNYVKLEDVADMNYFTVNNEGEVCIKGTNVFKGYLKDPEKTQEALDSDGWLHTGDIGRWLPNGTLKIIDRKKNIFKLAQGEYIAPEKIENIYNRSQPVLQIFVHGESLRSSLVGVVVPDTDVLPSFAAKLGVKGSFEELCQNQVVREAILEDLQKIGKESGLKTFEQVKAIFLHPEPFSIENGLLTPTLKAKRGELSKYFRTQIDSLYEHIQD

Serine/threonine-protein kinase 38-like, sequence (Q9Y2H1 whole entry): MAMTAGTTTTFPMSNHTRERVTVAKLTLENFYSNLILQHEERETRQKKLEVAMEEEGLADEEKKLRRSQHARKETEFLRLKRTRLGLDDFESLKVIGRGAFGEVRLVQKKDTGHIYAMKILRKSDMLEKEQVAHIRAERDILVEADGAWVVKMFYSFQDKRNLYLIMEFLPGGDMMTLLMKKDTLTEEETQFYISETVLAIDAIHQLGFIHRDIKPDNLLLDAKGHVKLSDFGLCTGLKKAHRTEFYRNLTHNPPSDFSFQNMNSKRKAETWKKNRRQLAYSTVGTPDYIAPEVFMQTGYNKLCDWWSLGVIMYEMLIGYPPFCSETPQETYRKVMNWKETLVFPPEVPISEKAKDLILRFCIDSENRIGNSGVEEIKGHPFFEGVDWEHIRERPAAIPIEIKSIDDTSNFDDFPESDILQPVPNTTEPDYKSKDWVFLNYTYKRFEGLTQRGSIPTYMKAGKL
Misshapen-like kinase 1, sequence (Q8N4C8 whole entry): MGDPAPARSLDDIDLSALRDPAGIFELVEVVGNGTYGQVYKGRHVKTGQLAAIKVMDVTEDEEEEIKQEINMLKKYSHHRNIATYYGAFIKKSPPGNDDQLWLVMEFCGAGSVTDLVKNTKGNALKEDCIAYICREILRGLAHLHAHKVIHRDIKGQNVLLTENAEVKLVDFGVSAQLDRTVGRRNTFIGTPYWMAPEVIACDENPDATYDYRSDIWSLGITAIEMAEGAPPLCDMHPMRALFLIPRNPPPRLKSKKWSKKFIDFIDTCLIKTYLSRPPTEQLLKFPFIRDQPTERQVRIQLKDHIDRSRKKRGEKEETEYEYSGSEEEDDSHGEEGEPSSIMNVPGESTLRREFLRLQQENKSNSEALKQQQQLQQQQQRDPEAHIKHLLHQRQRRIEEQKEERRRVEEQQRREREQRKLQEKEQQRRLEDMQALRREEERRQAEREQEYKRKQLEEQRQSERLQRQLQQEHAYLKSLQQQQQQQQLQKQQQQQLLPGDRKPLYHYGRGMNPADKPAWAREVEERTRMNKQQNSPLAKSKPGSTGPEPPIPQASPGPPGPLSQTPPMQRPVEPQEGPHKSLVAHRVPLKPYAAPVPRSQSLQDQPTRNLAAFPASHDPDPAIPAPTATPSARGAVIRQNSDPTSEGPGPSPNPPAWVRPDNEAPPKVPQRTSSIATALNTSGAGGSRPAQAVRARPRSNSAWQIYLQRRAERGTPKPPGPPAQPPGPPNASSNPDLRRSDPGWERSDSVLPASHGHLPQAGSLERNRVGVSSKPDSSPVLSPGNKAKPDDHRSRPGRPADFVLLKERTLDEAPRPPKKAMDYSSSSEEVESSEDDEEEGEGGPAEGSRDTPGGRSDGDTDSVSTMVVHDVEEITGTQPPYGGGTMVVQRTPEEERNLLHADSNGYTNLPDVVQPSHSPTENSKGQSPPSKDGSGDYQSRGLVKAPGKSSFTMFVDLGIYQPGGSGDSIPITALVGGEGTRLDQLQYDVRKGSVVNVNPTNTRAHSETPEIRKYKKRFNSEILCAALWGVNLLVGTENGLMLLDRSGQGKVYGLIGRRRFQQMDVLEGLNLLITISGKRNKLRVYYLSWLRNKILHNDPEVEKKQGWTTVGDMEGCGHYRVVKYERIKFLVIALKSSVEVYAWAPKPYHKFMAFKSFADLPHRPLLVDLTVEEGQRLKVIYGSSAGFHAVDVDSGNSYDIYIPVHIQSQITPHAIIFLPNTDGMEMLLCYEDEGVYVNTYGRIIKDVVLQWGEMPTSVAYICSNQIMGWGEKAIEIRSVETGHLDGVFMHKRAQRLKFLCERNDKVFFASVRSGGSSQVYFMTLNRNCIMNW
Uncharacterized aarF domain-containing protein kinase 5, sequence (Q3MIX3 whole entry, the tested form may be a part): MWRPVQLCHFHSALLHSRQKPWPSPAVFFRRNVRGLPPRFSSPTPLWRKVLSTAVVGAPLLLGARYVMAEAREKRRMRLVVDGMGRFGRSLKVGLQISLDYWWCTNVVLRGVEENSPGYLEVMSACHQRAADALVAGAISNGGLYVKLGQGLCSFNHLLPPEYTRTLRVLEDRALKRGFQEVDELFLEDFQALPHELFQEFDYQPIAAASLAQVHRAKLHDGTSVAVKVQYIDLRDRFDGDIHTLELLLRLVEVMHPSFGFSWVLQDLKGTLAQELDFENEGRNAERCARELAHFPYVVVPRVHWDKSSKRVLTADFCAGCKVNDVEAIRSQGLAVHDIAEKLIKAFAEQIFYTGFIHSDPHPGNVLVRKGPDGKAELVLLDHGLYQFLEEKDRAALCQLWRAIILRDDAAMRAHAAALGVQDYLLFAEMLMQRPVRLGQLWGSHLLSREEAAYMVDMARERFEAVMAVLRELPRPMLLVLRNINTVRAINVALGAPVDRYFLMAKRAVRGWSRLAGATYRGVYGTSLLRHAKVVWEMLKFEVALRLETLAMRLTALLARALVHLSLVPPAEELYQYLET
Dual specificity protein kinase CLK4, sequence (Q9HAZ1 whole entry): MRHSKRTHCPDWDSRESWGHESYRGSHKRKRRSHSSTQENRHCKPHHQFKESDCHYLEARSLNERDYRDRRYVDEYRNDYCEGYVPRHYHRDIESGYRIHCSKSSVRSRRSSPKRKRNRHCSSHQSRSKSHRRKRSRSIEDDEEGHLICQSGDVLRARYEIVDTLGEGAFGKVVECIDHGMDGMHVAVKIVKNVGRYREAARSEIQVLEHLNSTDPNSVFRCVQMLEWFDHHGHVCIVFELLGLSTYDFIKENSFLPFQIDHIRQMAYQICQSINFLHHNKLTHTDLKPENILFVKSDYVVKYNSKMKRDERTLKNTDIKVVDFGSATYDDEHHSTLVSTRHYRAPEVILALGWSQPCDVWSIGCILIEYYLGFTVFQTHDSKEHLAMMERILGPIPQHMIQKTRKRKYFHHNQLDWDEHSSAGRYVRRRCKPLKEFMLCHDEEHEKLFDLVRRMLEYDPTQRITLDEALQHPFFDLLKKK
Dual specificity protein kinase CLK3, sequence (P49761 whole entry, the tested form may be a part): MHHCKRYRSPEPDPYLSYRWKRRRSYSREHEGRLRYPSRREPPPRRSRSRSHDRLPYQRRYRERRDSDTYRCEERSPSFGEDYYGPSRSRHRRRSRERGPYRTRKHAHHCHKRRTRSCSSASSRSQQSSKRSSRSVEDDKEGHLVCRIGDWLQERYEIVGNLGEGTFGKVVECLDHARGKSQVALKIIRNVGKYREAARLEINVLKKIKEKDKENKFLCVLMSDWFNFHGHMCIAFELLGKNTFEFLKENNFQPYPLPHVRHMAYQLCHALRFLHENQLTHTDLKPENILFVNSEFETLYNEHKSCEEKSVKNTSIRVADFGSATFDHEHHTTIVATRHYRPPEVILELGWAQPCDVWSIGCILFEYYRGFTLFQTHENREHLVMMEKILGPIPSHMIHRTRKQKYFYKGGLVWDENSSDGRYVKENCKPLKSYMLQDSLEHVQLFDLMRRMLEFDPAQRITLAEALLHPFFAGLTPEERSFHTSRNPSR

Kd [1]	Kd [2]	Kd [3]	Kd [4]	Kd [5]	Kd (Misshapen-like kinase 1)	Kd [6]	Kd [7]	SMILES
> 30 µM (inactive)	> 30 µM (inactive)	1.48 µM (active)	> 30 µM (inactive)	> 30 µM (inactive)				Cc1csc(-c2nnc(Nc3ccc(Oc4ncccc4-c4ccnc(N)n4)cc3)c3ccccc23)c1 [AMG-900]
> 30 µM (inactive)	> 30 µM (inactive)	> 30 µM (inactive)		> 30 µM (inactive)	> 30 µM (inactive)			COc1cc2ncnc(Oc3cccc(NC(=O)Nc4cc(C(C)(C)C(F)(F)F)on4)c3)c2cc1OC [CEP-32496]
	> 30 µM (inactive)				> 30 µM (inactive)		> 30 µM (inactive)	NC1(c2ccc(-c3nc4ccn5c(=O)[nH]nc5c4cc3-c3ccccc3)cc2)CCC1 [MK-2206]
		> 30 µM (inactive)	> 30 µM (inactive)	> 30 µM (inactive)		> 30 µM (inactive)	> 30 µM (inactive)	NC(=O)c1c(OCc2c(F)cc(Br)cc2F)nsc1NC(=O)NCCCCN1CCCC1 [OSI-632]
> 30 µM (inactive)	> 30 µM (inactive)	> 30 µM (inactive)					> 30 µM (inactive)	Cc1cnc(NC(=O)Nc2cc(Br)c(C)cc2OC[C@@H]2CNCCO2)cn1 [RABUSERTIB]
> 30 µM (inactive)		> 30 µM (inactive)	> 30 µM (inactive)	> 30 µM (inactive)		> 30 µM (inactive)	> 30 µM (inactive)	N#CC1(c2ccc(NC(=O)c3cccnc3NCc3ccncc3)cc2)CCCC1 [RIVOCERANIB]
> 30 µM (inactive)	> 30 µM (inactive)		> 30 µM (inactive)		> 30 µM (inactive)		> 30 µM (inactive)	O=c1[nH]ccc2cc(OC3CCNCC3)ccc12 [SAR-407899 FREE BASE]
> 30 µM (inactive)	> 30 µM (inactive)	> 30 µM (inactive)	> 30 µM (inactive)	> 30 µM (inactive)	> 30 µM (inactive)			CO[C@H]1C[C@@H]2CC[C@@H](C)[C@@](O)(O2)C(=O)C(=O)N2CCCC[C@H]2C(=O)O[C@H]([C@H](C)C[C@@H]2CC[C@@H](O)[C@H](OC)C2)CC(=O)[C@H](C)/C=C(\C)[C@@H](O)[C@@H](OC)C(=O)[C@H](C)C[C@H](C)/C=C/C=C/C=C/1C [SIROLIMUS]
> 30 µM (inactive)	> 30 µM (inactive)	> 30 µM (inactive)	> 30 µM (inactive)	> 30 µM (inactive)	> 30 µM (inactive)		> 30 µM (inactive)	COc1cc2c(Nc3ccc(Cl)c(Cl)c3F)ncnc2cc1OC[C@@H]1C[C@@H]2CN(C)C[C@@H]2C1 [TESEVATINIB]
> 30 µM (inactive)		> 30 µM (inactive)	> 30 µM (inactive)			> 30 µM (inactive)	> 30 µM (inactive)	O=C1NC(=O)[C@@H](c2cn3c4c(cccc24)CCC3)[C@@H]1c1c[nH]c2ccccc12 [TIVANTINIB]
> 30 µM (inactive)						> 30 µM (inactive)	> 30 µM (inactive)	C[C@@H](N)c1ccc(C(=O)Nc2ccnc3[nH]ccc23)cc1 [Y-39983]

SMILES	Kd [1]	Kd [2]	Kd [3]	Kd [4]	Kd [5]	Kd (Misshapen-like kinase 1)	Kd [6]	Kd [7]
CC(C)(C)c1nc(-c2cccc(NS(=O)(=O)c3c(F)cccc3F)c2F)c(-c2ccnc(N)n2)s1 [DABRAFENIB]	> 30 µM (inactive)	> 30 µM (inactive)	> 30 µM (inactive)	> 30 µM (inactive)	> 30 µM (inactive)	> 30 µM (inactive)		
O=C(Nc1nc2cccc(-c3ccc(CN4CCS(=O)(=O)CC4)cc3)n2n1)C1CC1 [FILGOTINIB]	> 30 µM (inactive)			> 30 µM (inactive)		> 30 µM (inactive)	> 30 µM (inactive)	
CCCCCCCCCCCCCCCCCCOP(=O)([O-])OC1CC[N+](C)(C)CC1 [PERIFOSINE]							> 30 µM (inactive)	> 30 µM (inactive)
CNC(=O)c1cc(Oc2ccc(NC(=O)Nc3cc(C(C)(C)C)nn3-c3ccc4ncccc4c3)c(F)c2)ccn1 [REBASTINIB]	2.53 µM	> 30 µM (inactive)	> 30 µM (inactive)	> 30 µM (inactive)	> 30 µM (inactive)	> 30 µM (inactive)		
Cc1cc(Nc2ncnc3ccc(NC4=NC(C)(C)CO4)cc23)ccc1Oc1ccn2ncnc2c1 [TUCATINIB]	> 30 µM (inactive)	> 30 µM (inactive)				> 30 µM (inactive)		
